We go through three compounds from ChEMBL document CHEMBL1130696, “Conformationally constrained analogues of diacylglycerol (DAG). 15. The indispensable role of the sn-1 and sn-2 carbonyls in the binding of DAG-lactones to protein kinase C (PK-C)” (Bioorg Med Chem Lett, 1998).

This experiment concerns the target Protein kinase C alpha type (Homo sapiens, UniProt P17252). In words: Displacement of [20-3H]-phorbol 12,13-dibutyrate (PDBU) from PKCalpha (C1b domain).
Broadly, the Ki is a dissociation constant, usually derived from enzyme kinetics or from competition with a known ligand. A lower Ki goes with tighter binding. `CCCCCCCCCCCCC/C=C1/COC(CO)(COC(C)=O)C1` (stereo not drawn) gave a Ki of 7.58 µM.
As for `CCCCCCCCCCCCC/C=C1\CC(CO)(COCC)OC1=O` (stereo not drawn), the affinity corresponds to a Ki of 4.98 µM.
For the compound `CCCCCCCCCCCCC/C=C1/CC(CO)(COCC)OC1=O` (stereo not drawn), the Ki amounted to 7.46 µM.
